Ten compounds from ChEMBL document CHEMBL1201862, “PubChem BioAssay data set” (2004) can be followed below.

Structures are written as SMILES.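 Values below derive from 48-hour exposures of cells grown in 96-well plates, with endpoints linearly interpolated between the two concentrations bracketing the appropriate inhibition level. At the GI50, growth is halved.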 Activity calls are given as the source filed them. Rule as the data show it: active = GI50 up to about 1.1 µM and inactive = higher.

Holding throughout (assay): NCI tumour cell line growth inhibition, 48 h
For experiment [1], the system named is UACC-257.
The test system of experiment [2] is OVCAR-4.
In experiment [3] the test system is SF-539.
Experiment [4] deals with RPMI-8226.
Experiment [5] has as its system T47D.
Experiment [6] has as its system MDA-MB-231.
For experiment [7], the system named is Malme-3M.
Experiment [8] concerns MOLT-4.
Experiment [9] deals with DU-145.
The test system of experiment [10] is MDA-MB-435.
Experiment [11] has as its system U-251.
Experiment [12] has as its system SK-MEL-2.
For experiment [13], the system named is HCT-15.
In experiment [14] the test system is HCC 2998.
The test system of experiment [15] is UO-31.
Experiment [16] relates to Hs-578T.
Experiment [17] concerns LOX IMVI.
The test system of experiment [18] is HCT-116.
For experiment [19], the system named is MDA-N.

For the compound `Cc1cc2ncn(C3CCCCO3)c2cc1C` (stereo not given), the GI50 in experiment [1], in experiment [2], in [3], in experiment [4], in [5] and in experiment [6] was > 100 µM (inactive) throughout. The GI50 in experiment [7], in experiment [8], in [9], in experiment [10], in experiment [11] and in experiment [12] was > 100 µM (inactive) in each case. Moreover, the GI50 was above 100 µM in [13]; > 100 µM (inactive) in experiment [14]; 20.2 µM (inactive) in experiment [15]; > 100 µM (inactive) in experiment [16]; 62.5 µM (inactive) in experiment [17]; > 100 µM (inactive) in experiment [18]. The GI50 in [19] was > 100 µM (inactive).

For `c1ccc([P+](Cc2ccc(C[P+](c3ccccc3)(c3ccccc3)c3ccccc3)s2)(c2ccccc2)c2ccccc2)cc1`, the GI50 in [1], in experiment [2], in experiment [3], in [4], in experiment [5] and in experiment [6] was > 100 µM (inactive) each time. The GI50 in experiment [7], in experiment [8], in experiment [9], in [10], in experiment [11] and in experiment [12] was > 100 µM (inactive) throughout. Also, the GI50 in experiment [13] was above 100 µM; in experiment [14] it was > 100 µM (inactive); in [15] it was > 100 µM (inactive); in experiment [16] it was > 100 µM (inactive); in experiment [17], > 100 µM (inactive); in [18] it was > 100 µM (inactive). Further, the GI50 in experiment [19] is > 100 µM (inactive).

For `CC(=O)OCC1OC(OCCCOP(=S)(OCCC#N)OCC2OC(n3ccc(N)nc3=O)C(OC(=O)c3ccccc3)C2OC(=O)c2ccccc2)C(OC(C)=O)C(OC(C)=O)C1OC(C)=O` (stereo not given), the GI50 in experiment [1], in [2], in experiment [3], in experiment [4], in experiment [5] and in [6] was > 100 µM (inactive) each time. Also, the GI50 in experiment [7], in [8], in [9], in experiment [10], in experiment [11] and in experiment [12] was > 100 µM (inactive) throughout. Besides, the GI50 is above 100 µM in experiment [13]; > 100 µM (inactive) in experiment [14]; > 100 µM (inactive) in experiment [15]; > 100 µM (inactive) in experiment [16]; > 100 µM (inactive) in [17]; > 100 µM (inactive) in experiment [18]. Moreover, the GI50 in [19] is > 100 µM (inactive).

With `CCOC(=O)c1nc2c(nc1C(=O)OCC)C(=O)c1ccccc1C2=O`, the GI50 in [1] is 0.431 µM (active); in [2], 0.637 µM (active); in experiment [3] it was 0.473 µM (active); in experiment [4] it was 0.753 µM (active); in experiment [5], 3.85 µM (inactive); in experiment [6] it was 2.16 µM (inactive). For the same compound, the GI50 in [7] is 0.174 µM (active); in experiment [8], 1.71 µM (inactive); in [9] it was 0.828 µM (active); in [10] it was 0.246 µM (active); in [11] it was 0.703 µM (active); in [12], 0.394 µM (active). Besides, the GI50 is 1.92 µM in experiment [13]; 1.35 µM (inactive) in [14]; 0.333 µM (active) in experiment [15]; 0.236 µM (active) in experiment [16]; 0.353 µM (active) in experiment [17]; 0.875 µM (active) in [18]. Further, the GI50 in [19] is 0.248 µM (active).

Turning to `CCOC(=O)CCC(NC(=O)c1ccc(Nc2cnc3cc(C(F)(F)F)ccc3n2)cc1)C(=O)OCC` (stereo not given), the GI50 in experiment [1] is > 100 µM (inactive); in experiment [2], 36.7 µM (inactive); in experiment [3], > 100 µM (inactive); in experiment [4] it was > 100 µM (inactive); in experiment [5], > 100 µM (inactive); in experiment [6], > 100 µM (inactive). In addition, the GI50 is > 57 µM (inactive) in experiment [7]; > 100 µM (inactive) in [8]; > 100 µM (inactive) in [9]; > 100 µM (inactive) in experiment [10]; 9.48 µM (inactive) in experiment [11]; > 100 µM (inactive) in [12]. Also, the GI50 in experiment [13] is above 100 µM; in [14] it was > 30.6 µM (inactive); in experiment [15] it was > 100 µM (inactive); in experiment [16] it was 6.21 µM (inactive); in experiment [17], > 100 µM (inactive); in experiment [18], 17.8 µM (inactive). For the same compound, in experiment [19], the GI50 was > 100 µM (inactive).

Consider `C=C1C(=O)OC2C3OC(C)(CCC(O)C3COC(C)=O)CC(OC(=O)/C(=C/C)COC(C)=O)C12` (stereo not given), for which the GI50 was 0.586 µM (active) in [1]; 1.9 µM (inactive) in experiment [2]; 1.58 µM (inactive) in [3]; 0.0698 µM (active) in experiment [4]; 0.142 µM (active) in experiment [5]; 0.53 µM (active) in experiment [6]. In addition, the GI50 in experiment [7] was 0.0242 µM (active); in experiment [8], 0.0783 µM (active); in experiment [9] it was 0.778 µM (active); in experiment [10] it was 0.109 µM (active); in experiment [11], 1.22 µM (inactive); in [12], 1.13 µM (inactive). The GI50 in [13] was 0.061 µM; in experiment [14], 1.3 µM (inactive); in [15] it was 0.398 µM (active); in experiment [16], 0.634 µM (active); in experiment [17], 0.163 µM (active); in [18], 0.0796 µM (active). Besides, the GI50 in experiment [19] is 0.155 µM (active).

Turning to `Cc1cc(O)c(C(C)C)cc1C1(c2cc(C(C)C)c(O)cc2C)OC(=O)c2ccccc21`, the GI50 in experiment [1] was 1.85 µM (inactive); in [2], 2.12 µM (inactive); in experiment [3] it was 1.79 µM (inactive); in experiment [4], 1.21 µM (inactive); in experiment [5], 1.85 µM (inactive); in [6], 1.91 µM (inactive). The GI50 in experiment [7] is 2.21 µM (inactive); in experiment [8], 1.34 µM (inactive); in experiment [9] it was 2.07 µM (inactive); in experiment [10] it was 1.63 µM (inactive); in [11], 1.97 µM (inactive); in [12], 1.82 µM (inactive). Also, the GI50 was 2 µM in experiment [13]; 1.73 µM (inactive) in experiment [14]; 2.56 µM (inactive) in experiment [15]; 2.14 µM (inactive) in experiment [16]; 1.78 µM (inactive) in [17]; 1.67 µM (inactive) in [18]. In addition, the GI50 in experiment [19] was 1.67 µM (inactive).

Turning to `O=C(/C=C/c1ccc(O)c(O)c1)OCCCOC(=O)/C=C/c1ccc(O)c(O)c1`, the GI50 in experiment [1] was 26.4 µM (inactive); in [2], 23.2 µM (inactive); in [3], 41.9 µM (inactive); in experiment [4], 17.4 µM (inactive); in [5], 35.6 µM (inactive); in [6], 62.1 µM (inactive). Also, the GI50 in experiment [7] is 43.3 µM (inactive); in experiment [8], 10.9 µM (inactive); in experiment [9], 34.8 µM (inactive); in experiment [10] it was 30.2 µM (inactive); in [11], 23.5 µM (inactive); in experiment [12], 41.8 µM (inactive). The GI50 is 14 µM in experiment [13]; 38.9 µM (inactive) in experiment [14]; 7.13 µM (inactive) in [15]; 49.5 µM (inactive) in experiment [16]; 12.4 µM (inactive) in [17]; 18.2 µM (inactive) in experiment [18]. Moreover, in [19], the GI50 is 17.5 µM (inactive).

For `Nc1c(C(=O)O)nnc2ccc(Cl)cc12`, the GI50 in experiment [1], in experiment [2], in experiment [3], in [4], in experiment [5] and in [6] was > 100 µM (inactive) each time. The GI50 in [7], in experiment [8], in [9], in experiment [10], in experiment [11] and in experiment [12] was > 100 µM (inactive) throughout. For the same compound, the GI50 in experiment [13] was above 100 µM; in [14], > 100 µM (inactive); in experiment [15], 94.8 µM (inactive); in experiment [16], > 100 µM (inactive); in experiment [17] it was > 100 µM (inactive); in [18] it was > 100 µM (inactive). In addition, in [19], the GI50 is > 100 µM (inactive).

Take `O=[N+]([O-])/C=C/c1cc(Cl)c(/C=C/[N+](=O)[O-])cc1Cl`: the GI50 is 1.89 µM (inactive) in experiment [1]; 1.87 µM (inactive) in [2]; 1.86 µM (inactive) in experiment [3]; 1.25 µM (inactive) in experiment [4]; 2.03 µM (inactive) in experiment [5]; 1.86 µM (inactive) in [6]. Further, the GI50 in experiment [7] was 1.91 µM (inactive); in experiment [8], 0.434 µM (active); in experiment [9], 2.51 µM (inactive); in [10] it was 1.82 µM (inactive); in experiment [11], 1.63 µM (inactive); in experiment [12] it was 3.25 µM (inactive). Also, the GI50 in [13] was 1.01 µM; in experiment [14] it was 1.53 µM (inactive); in experiment [15], 1.49 µM (inactive); in experiment [16], 2.91 µM (inactive); in [17] it was 1.53 µM (inactive); in [18], 1.12 µM (active). Further, the GI50 in experiment [19] is 2.27 µM (inactive).
